Reference: patent publication US12023336B2, “Antiviral drug compounds and composition thereof” (priority 2018, dated 2024)
Counter-ions that a name gives are not always drawn. Like-named read-outs stand apart in the source and are kept apart here.

Columns and labels:
Format in all cases: cell-based
HIV-1NL4.3 [1] = assay: microbe, parasite or virus in culture; conditions: for inhibition at 10 µM: read-out: % Inhibition at 10 μM Concentration
Experimental: TZM-bl cells were seeded at the density of 12,000-15,000 cells/well of 96 well plate with 100 μL DMEM (with 10% FBS) in each well. 12-hours post seeding, the media was replaced with fresh DMEM containing HTV-1NL4.3 at 0.1 MOI and cells were treated with different molecules independently at 10 μM working concentration. Cells were incubated in humidified CO2 incubator for 4-hours. After incubation, the media was replaced and cells were washed twice with incomplete DMEM and 100 μL of complete DMEM was added in each wells along with the molecules of interest and incubated at 37° C. in humidified CO2 incubator. 48-hours post incubation, the media was removed and cells were washed twice with 100 μL of 1×PBS. After washing, cells were lysed using cell culture lysis reagent and Steady-Glo substrate was added at 1:1 ration in each well. Luminescence was measured using Molecular Devices M5 (Table 2). % Inhibition was calculated using following formula and plotted.
[formula] (RLU=Relative Luminescence Unit)

CEM-GFP cells = assay: MTT cell viability assay in CEM-GFP cells; conditions: concentration at which cell viability was 50%
Experimental: (a-b) CEM-GFP cells were treated with different concentrations of MTX-HYD and MTX and cytotoxicity was determined by MTT cell viability assay. […] (c-d) CEM-GFP cells were infected with 0.5 MOI (Multiplicity of infection) of HIV-1NL4.3 virus in presence of MTX-HYD or MTX. 72-hours post infection supernatant was collected and virus production was determined by p24 antigen capture ELISA.
Cytotoxicity of MTX-HYD and MTX and their analogues was determined by MTT cell proliferation assay kit, (Roche, Germany) as described earlier. Briefly, cells were seeded at the density of 25,000 cells/well in 96 well plate containing 100 μL of RPMI. Molecules at different concentration was added to the media and incubated in humidified CO2 incubator. Untreated cells were taken as negative control and DMSO treated cells were taken as vehicle control. 48-hours post incubation, 10 μL of MTT (5 mg/mL) was added in each well in dark and incubated at 37° C. for the formation of formazan crystals. 4-hours post incubation, the crystals were dissolved using 100 μL isopropanol and the absorbance was read at 570 nm.

HIV-1NL4.3 [2] = conditions: CEM-GFP cells; for IC50: HIV-1NL4.3 0.5 MOI, p24 ELISA 72 h post infection
Experimental: Cells were then treated with molecules at different concentrations.

[3] = Human immunodeficiency virus 1, 10 μM, HIV-1NL4.3 0.1 MOI, TZM-bl cells, luminescence 48 h
[4] = 10 μM, HIV-1NL4.3 0.1 MOI, TZM-bl cells, luminescence 48 h
[5] = Human immunodeficiency virus 1, TZM-bl, 48 h

Molecule: CC[N+](CC)(CC)CCOc1ccc(/C=C/c2ccccc2)cc1 [MG 624]
- inhibition at 10 µM (HIV-1NL4.3 [1]; [3]): 97.1%

Molecule: O=c1oc(Cl)c(Cl)c2ccccc12 [Dichloroisocoumarin]
- % Inhibition at 10 μM Concentration (HIV-1NL4.3 [1]; [4]): 97.06%

Molecule: CN(Cc1cnc2nc(N)nc(N)c2n1)c1ccc(C(=O)N[C@@H](CCC(=O)O)C(=O)O)cc1 [MTX-methyl-d3]
- CC50 (CEM-GFP cells): 46.4 ± 1.08 µM
- IC50 (HIV-1NL4.3 [2]): 0.0421 ± 0.00384 µM

Molecule: Cl.NCCCC(N)(C(=O)O)C(F)F (racemic) [DL-alpha-Difluoromethylornithine hydrochloride]
- % Inhibition at 10 μM Concentration (HIV-1NL4.3 [1]; [4]): 97.06%

Molecule: Nc1nc2c(ncn2CCOCP(=O)(O)O)c(=O)[nH]1 [PMEG hydrate]
- % Inhibition at 10 μM Concentration (HIV-1NL4.3 [1]; [4]): 99.36%

Molecule: CC(C)NC[C@H](O)COc1cccc2ccccc12.Cl [(S)-Propranolol hydrochloride]
- % Inhibition at 10 μM Concentration (HIV-1NL4.3 [1]; [4]): 99.30%

Molecule: O=[N+]([O-])/C=C/c1ccc2c(c1)OCO2 [MNS]
- % Inhibition at 10 μM Concentration (HIV-1NL4.3 [1]; [4]): 99.63%

Molecule: OCCN1CCN(CCCN2c3ccccc3Sc3ccc(Cl)cc32)CC1 [Perphenazine]
- inhibition at 10 µM (HIV-1NL4.3 [1]; [3]): 99.6%

Molecule: COC(=O)C1=C(C)NC(C)=C(C(=O)OCCN(C)Cc2ccccc2)C1c1cccc([N+](=O)[O-])c1 (centres unmarked) [Nicardipine hydrochloride]
- inhibition at 10 µM (HIV-1NL4.3 [1]; [3]): 99.6%

Molecule: CS(=O)(=O)c1cccc(CNc2nc(Nc3ccc4c(c3)CCC(=O)N4)ncc2C(F)(F)F)c1 [PF-573228]
- % Inhibition at 10 μM Concentration (HIV-1NL4.3 [1]; [4]): 97.23%

Molecule: N=C(N)N/N=C/c1c(Cl)cccc1Cl [Guanabenz acetate]
- inhibition at 10 µM (HIV-1NL4.3 [1]; [3]): 99.6%

Molecule: O=C1c2ccccc2C(=O)c2c(NCCc3ccc(O)cc3)ccc(NCCc3ccc(O)cc3)c21 [1,4-Bis[(p-hydroxyphenethyl)amino]-anthraquinone]
- inhibition at 10 µM (HIV-1NL4.3 [1]; [5]): 98.9%

Molecule: O=C(O)C1=CC(=C(c2ccc(O)c(C(=O)O)c2)c2ccc(O)c(C(=O)O)c2)C=CC1=O [Aurintricarboxylic acid]
- inhibition at 10 µM (HIV-1NL4.3 [1]; [3]): 97.2%

Molecule: O=Nc1ccc2oc(=O)ccc2c1 [6-Nitroso-1,2-benzopyrone]
- % Inhibition at 10 μM Concentration (HIV-1NL4.3 [1]; [4]): 99.15%

Molecule: CN(Cc1cnc2nc(N)nc(N)c2n1)c1ccc(C(=O)N[C@@H](CCC(=O)N[C@@H](CCC(=O)N[C@@H](CCC(=O)N[C@@H](CCC(=O)N[C@@H](CCC(=O)N[C@@H](CCC(=O)N[C@@H](CCC(=O)O)C(=O)O)C(=O)O)C(=O)O)C(=O)O)C(=O)O)C(=O)O)C(=O)O)cc1 [MTX heptaglutamate]
- CC50 (CEM-GFP cells): 39.9 ± 1 µM
- TI (Therapeutic index = CC50/IC50) (HIV-1NL4.3 [2]): 541.87
- IC50 (HIV-1NL4.3 [2]): 0.0737 ± 0.00165 µM

Molecule: MTX-d3 heptaglutamate
- CC50 (CEM-GFP cells): 40.5 ± 3.43 µM
- IC50 (HIV-1NL4.3 [2]): 0.0779 ± 0.00242 µM

Molecule: O=C1c2c(O)ccc(O)c2C(=O)c2c(NCCNCCO)ccc(NCCNCCO)c21 [Mitoxantrone]
- inhibition at 10 µM (HIV-1NL4.3 [1]; [3]): 97.1%

Molecule: COc1ccccc1CNCCCCCCNCCCCCCCCNCCCCCCNCc1ccccc1OC [Methoctramine tetrahydrochloride]
- % Inhibition at 10 μM Concentration (HIV-1NL4.3 [1]; [4]): 98.94%

Molecule: O=C(Nc1cccc(C(=O)Nc2ccc(S(=O)(=O)O)c3cc(S(=O)(=O)O)cc(S(=O)(=O)O)c23)c1)Nc1cccc(C(=O)Nc2ccc(S(=O)(=O)O)c3cc(S(=O)(=O)O)cc(S(=O)(=O)O)c23)c1 [NF 023]
- % Inhibition at 10 μM Concentration (HIV-1NL4.3 [1]; [4]): 95.77%

Molecule: CCCN1CCC[C@@H](c2cccc(O)c2)C1.Cl [S(−)-3PPP hydrochloride]
- % Inhibition at 10 μM Concentration (HIV-1NL4.3 [1]; [4]): 98.60%

Molecule: CCCCc1ncc(/C=C(\Cc2cccs2)C(=O)O)n1Cc1ccc(C(=O)O)cc1 [Eprosartan mesylate]
- inhibition at 10 µM (HIV-1NL4.3 [1]; [3]): 99.8%

Molecule: O=C1Cc2c([nH]c3ccc(Br)cc23)-c2ccccc2N1 [Kenpaullone]
- inhibition at 10 µM (HIV-1NL4.3 [1]; [3]): 98.7%

Molecule: CNCCCC12CCC(c3ccccc31)c1ccccc12 [Maprotiline hydrochloride]
- inhibition at 10 µM (HIV-1NL4.3 [1]; [5]): 98.9%

Molecule: CC1=C(/C=C/C(C)=C/C=C/C(C)=C/C(=O)Nc2ccc(O)cc2)C(C)(C)CCC1 [Retinoic acid p-hydroxyanilide]
- % Inhibition at 10 μM Concentration (HIV-1NL4.3 [1]; [4]): 98.52%

Molecule: COc1ccc(-c2cc3nccn3c(Nc3ncccc3C(N)=O)n2)cc1OC.Cl.O [BAY 61-3606 hydrochloride hydrate]
- % Inhibition at 10 μM Concentration (HIV-1NL4.3 [1]; [4]): 95.05%

Molecule: Cn1c(=O)c(-c2c(Cl)cccc2Cl)cc2cnc(Nc3ccc(N4CCOCC4)cc3)nc21 [PD173952]
- % Inhibition at 10 μM Concentration (HIV-1NL4.3 [1]; [4]): 96.16%

Molecule: CCc1ccccc1OC[C@@H](O)CN[C@H]1CCCc2ccccc21.O=C(O)C(=O)O [SR 59230A oxalate]
- % Inhibition at 10 μM Concentration (HIV-1NL4.3 [1]; [4]): 97.52%

Molecule: CC(C)[C@H]1c2ccc(F)cc2CC[C@@]1(CCN(C)CCCc1nc2ccccc2[nH]1)OC(=O)C1CC1 [NNC 55-0396]
- % Inhibition at 10 μM Concentration (HIV-1NL4.3 [1]; [4]): 97.75%
